Experimental data: ChEMBL document CHEMBL1201862, “PubChem BioAssay data set” (2004)
Values joined by “and” are separate entries in the source; they are usually repeats but may differ in a detail not shown here. Equal entries are not always repeated. Active and inactive are the calls of the source.

Legend:
[1] = cytotoxicity in HepG2 cells, dose response, cytotoxicity control, cell-based, cherry-picked samples (AID 1053183); assay type: functional
[2] = cytotoxicity in HEK293 cells, dose response, cytotoxicity control, cell-based, cherry-picked samples (AID 1053185); assay type: functional
[3] = cytotoxicity in A549 cells, dose response, cytotoxicity control, cell-based, cherry-picked samples (AID 1053184); assay type: functional
[4] = inhibitors of PGC1a acetylation in cells, dose response, cell-based, cherry-picked samples (AID 720514); assay type: functional;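 also: potency may reflect raised or lowered acetylation signal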
[5] = Late-stage results from the probe development effort to identify antagonists of arginine vasopressin receptor 1a (AVPR1a): fluorescence-based cell-based dose response OXTR inhibition counterscreen assay.; assay type: functional
[6] = Late-stage results from the probe development effort to identify antagonists of arginine vasopressin receptor 1a (AVPR1a): fluorescence-based cell-based dose response AVPR1a inhibition assay.; assay type: functional
[7] = target: Vasopressin V2 receptor (Homo sapiens, UniProt P30518); assay: Late-stage results from the probe development effort to identify antagonists of arginine vasopressin receptor 1a (AVPR1a): fluorescence-based cell-based dose response AVPR2 inhibition counterscreen assay.; assay type: functional
[8] = target: Vasopressin V1b receptor (Homo sapiens, UniProt P47901); assay: Late-stage results from the probe development effort to identify antagonists of arginine vasopressin receptor 1a (AVPR1a): fluorescence-based cell-based dose response AVPR1b inhibition counterscreen assay.; assay type: functional
[9] = target: NAD-dependent protein deacylase sirtuin-5, mitochondrial (Homo sapiens, UniProt Q9NXA8); assay: SIRT5 desuccinylase inhibitors, dose response, biochemical, fluorescence imaging, cherry-pick, set 5 (AID 720591);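 also: desuccinylation of succinyl peptide AMC substrate read as fluorescence after trypsin release; potency of inhibitors that lower fluorescence and may act on trypsin instead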
[10] = MC4R antagonists, dose response, counter-screen for LGR2 antagonist project, cell-based, plate reader, cherry pick (AID 743444); assay type: functional;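 also: transfected HEK 293 cells stimulated with alpha-MSH peptide; potency of inhibitors of the alpha-MSH evoked signal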
[11] = Luminescence-based cell-based high throughput dose response assay to identify activators of the DAF-12 from the parasite S. stercoralis (ssDAF-12).; assay type: functional
[12] = HepG2 cell cytotoxicity, dose response, cytotoxicity control, ATP luminescence, cherry-pick, activator set 2 (AID 1053143); assay type: functional, cell-based
[13] = LGR2 antagonists, dose response, cell-based, HEK293, CRE-luciferase reporter, cherry pick, set 2 (AID 743343); assay type: functional;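 also: transfected cells were stimulated with diluted bursicon conditioned medium after compound addition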
[14] = HepG2 cell cytotoxicity, dose response, cytotoxicity control, plate reader, cherry-pick, antagonist series (AID 743416); assay type: functional, cell-based
[15] = target: T1, Protein skinhead-1 (Caenorhabditis elegans, UniProt P34707); assay type: functional
T1 sequence (P34707 whole entry): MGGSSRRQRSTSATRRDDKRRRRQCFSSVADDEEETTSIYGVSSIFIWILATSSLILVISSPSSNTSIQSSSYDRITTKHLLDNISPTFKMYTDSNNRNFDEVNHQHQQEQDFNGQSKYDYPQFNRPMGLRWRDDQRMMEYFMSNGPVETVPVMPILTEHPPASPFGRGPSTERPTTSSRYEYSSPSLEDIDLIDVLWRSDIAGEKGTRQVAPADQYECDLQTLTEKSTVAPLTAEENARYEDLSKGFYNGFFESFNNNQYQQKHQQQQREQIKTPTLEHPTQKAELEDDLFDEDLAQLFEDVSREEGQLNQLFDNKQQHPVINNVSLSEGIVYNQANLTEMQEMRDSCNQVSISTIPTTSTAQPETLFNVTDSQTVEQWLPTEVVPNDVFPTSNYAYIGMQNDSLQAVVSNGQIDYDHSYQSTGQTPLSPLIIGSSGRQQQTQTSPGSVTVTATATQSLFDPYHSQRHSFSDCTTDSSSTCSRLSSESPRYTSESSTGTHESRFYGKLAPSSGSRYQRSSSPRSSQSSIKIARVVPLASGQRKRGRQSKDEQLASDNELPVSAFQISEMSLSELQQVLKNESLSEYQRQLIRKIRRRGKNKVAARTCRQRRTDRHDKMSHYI

[16] = A549 cell cytotoxicity, dose response, cytotoxicity control, plate reader, cherry-pick, antagonist series (AID 743412); assay type: functional, cell-based
[17] = YAP1 pathway inhibition via CTGF transcript levels, dose response, cell-based, DLD1 colon cancer, RT-qPCR, cherry-pick (AID 1053122); assay type: functional; settings: Cancer cell lines
[18] = HEK293T cell cytotoxicity, dose response, cytotoxicity control, CellTiter-Glo luminescence, dry powder, set 6 (AID 651949); assay type: functional, cell-based; settings: HEK293
[19] = CEM21 cell cytotoxicity, dose response, cytotoxicity control, plate reader, dry powder (AID 687026); assay type: functional, cell-based
[20] = target: Nucleotide-binding oligomerization domain-containing protein 2 (Homo sapiens, UniProt Q9HC29); assay: NOD2 signaling inhibitors, cell-based, luminescence, uHTS, HEK293 (AID 1566); assay type: functional
[21] = inhibitors of HIV Env-driven cell fusion, dose response, cherry-pick (AID 652057); assay type: functional, cell-based
[22] = system: HEK293; assay: cells; assay type: functional, cell-based; settings: Homo sapiens
[23] = target: T2, Estrogen receptor (Homo sapiens, UniProt P03372);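 also: potency for inhibiting coactivator peptide recruitment to the receptor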
T2 sequence (P03372 whole entry): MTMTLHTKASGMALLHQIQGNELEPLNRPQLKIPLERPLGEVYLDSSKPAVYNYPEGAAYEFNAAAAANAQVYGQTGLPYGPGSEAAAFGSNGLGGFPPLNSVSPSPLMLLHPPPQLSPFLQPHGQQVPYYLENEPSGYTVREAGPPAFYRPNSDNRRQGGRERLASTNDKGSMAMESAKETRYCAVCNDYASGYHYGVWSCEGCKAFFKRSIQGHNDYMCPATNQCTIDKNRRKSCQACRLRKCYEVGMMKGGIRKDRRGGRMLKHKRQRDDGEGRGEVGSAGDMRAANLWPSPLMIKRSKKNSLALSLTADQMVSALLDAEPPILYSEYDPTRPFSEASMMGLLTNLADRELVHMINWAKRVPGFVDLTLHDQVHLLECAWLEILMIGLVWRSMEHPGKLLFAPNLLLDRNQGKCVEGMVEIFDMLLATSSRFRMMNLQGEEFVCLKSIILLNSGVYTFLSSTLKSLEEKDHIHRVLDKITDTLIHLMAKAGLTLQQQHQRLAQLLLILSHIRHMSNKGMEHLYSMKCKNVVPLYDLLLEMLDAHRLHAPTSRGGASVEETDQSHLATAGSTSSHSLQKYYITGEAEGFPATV

[24] = system: HEK293; assay: NOD1 signaling inhibitors, primary screen, cell-based, luminescence, uHTS (AID 1578); assay type: functional; settings: Homo sapiens
[25] = system: HEK293; assay: cells; assay type: functional, cell-based; settings: Homo sapiens; remark: listed apart in the source
[26] = system: HEK293; assay: cells; assay type: functional, cell-based; settings: Homo sapiens; remark: listed apart in the source
[27] = off-target signal loss in HeLa-CEM21 co-culture – HeLa F-luc CTL cells, cherry-picked, counter-screen for HIV-1 Env fusion inhibitor project, dose response (AID 652040); assay type: functional, cell-based;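 also: potency for signal decrease marking cytotoxic or nonspecific inhibition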
[28] = system: HEK293; assay: NOD2 signaling inhibitors in MDP-stimulated cells, cell-based, uHTS, luminescence (AID 2001); assay type: functional; settings: Homo sapiens
[29] = inhibitors of clade B AD8 Env fusion, dose response, cell-based, cherry-pick (AID 652062); assay type: functional;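 also: luciferase signal from cell-cell fusion driven by HIV-1 clade B AD8 Env; potency is for inhibitors of fusion seen as a drop in luminescence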
[30] = HIV Env cell-cell fusion inhibitors, dose response, HIV entry, plate reader, dry powder (AID 687023); assay type: functional, cell-based
[31] = ZM109 Env clade C HIV-1 fusion inhibitors, dose response, HeLa effector, CEM target cells, luciferase, cherry-pick (AID 652058); assay type: functional, cell-based
[32] = HepG2 cell cytotoxicity, dose response, cytotoxicity control, cherry-picks, set 5 (AID 1053118); assay type: functional, cell-based
[33] = A549 cell cytotoxicity, dose response, cytotoxicity control, cherry-picks, 26 µM top dose (AID 1053119); assay type: functional, cell-based
[34] = Late stage assay provider results from the probe development effort to identify inhibitors of the Plasmodium falciparum M18 Aspartyl Aminopeptidase (M18AAP): radiolabel-based cell-based dose response assay to identify compounds that inhibit P. falciparum growth in RBCs, Set 2..; assay type: functional
[35] = target: Metabotropic glutamate receptor 5 (Rattus norvegicus, UniProt P31424); assay: Identification of a glycine sulfonamide based non-MPEP site positive allosteric potentiator (PAM) of mGlu5 (calcium_assay).; assay type: functional
[36] = target: Caspase-6 (Homo sapiens, UniProt P55212); assay: human caspase-6 inhibitors, dose response, biochemical, VEID-R110 fluorescence, cherry-pick (AID 720632)
[37] = target: T3, Potassium channel subfamily K member 9 (Homo sapiens, UniProt Q9NPC2); assay: TASK3 (KCNK9) channel inhibitors, thallium flux, SAR follow-up, selectivity assay for TASK1 inhibitor project, cell-based, FluxOR thallium flux, concentration-response (AID 652211); assay type: functional;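 also: potency is for inhibitors of the channel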
[38] = target: T3, Potassium channel subfamily K member 9; assay: KCNK9 (TASK3) current inhibition by patch clamp, SAR follow-up, selectivity assay for TASK1 (KCNK3) inhibitor project, cell-based, automated electrophysiology (AID 652210); assay type: functional
[39] = target: Potassium channel subfamily K member 3 (Homo sapiens, UniProt O14649); assay: TASK1 (KCNK3) potassium channel inhibitors, SAR follow-up, CHO cells, FluxOR thallium flux (AID 652212); assay type: functional
[40] = target: Potassium channel subfamily K member 3 (Rattus norvegicus, UniProt O54912); assay: SAR analysis for the identification of selective inhibitors of the two-pore domain potassium channel TASK1(KCNK3):Automated Electrophysiology.; assay type: functional
[41] = target: Potassium voltage-gated channel subfamily KQT member 2 (Rattus norvegicus, UniProt O88943); assay: KCNQ2 channel inhibition, SAR follow-up, selectivity assay for TASK1 inhibitor project, cell-based, FluxOR thallium flux, concentration-response (AID 652192); assay type: functional
[42] = NIH:OVCAR-3 ovarian cancer cell cytotoxicity, dose response, PAX8 inhibitor project, plate reader, dry powder samples (AID 743044); assay type: functional, cell-based
[43] = cytotoxicity in OVCAR8 ovarian cancer cells, dose response, PAX8 project, cell-based, plate reader, dry powder samples (AID 743197); assay type: functional; settings: OVCAR-8
[44] = IGROV1 ovarian cancer cell cytotoxicity, dose response, PAX8 inhibitor project, plate reader, dry powder samples (AID 743043); assay type: functional, cell-based; settings: IGROV-1
[45] = target: Paired box protein Pax-8 (Homo sapiens, UniProt Q06710); assay: inhibitors of PAX8-driven TPO luciferase reporter, dose response, RMG-I cells, cherry-pick (AID 687027); assay type: functional, cell-based;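 also: luciferase reporter driven by Pax8 target thyroperoxidase promoter measured by SteadyGlo luminescence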
[46] = IOSE-T80 ovarian epithelial cell cytotoxicity, dose response, cytotoxicity control for PAX8 inhibitor project, plate reader, dry powder samples (AID 743045); assay type: functional, cell-based
[47] = cytotoxicity in HEK-293T cells, dose response, cytotoxicity control for TCR NF-kB inhibitor project, luminescence, T-cell screen hits (AID 489026); assay type: functional, cell-based;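 also: cells exposed to compound about 14 hours before the viability readout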
[48] = HEK293 cell cytotoxicity, dose response, cytotoxicity control, dry powder samples (AID 720567); assay type: functional, cell-based

T3 sequence (Q9NPC2 whole entry): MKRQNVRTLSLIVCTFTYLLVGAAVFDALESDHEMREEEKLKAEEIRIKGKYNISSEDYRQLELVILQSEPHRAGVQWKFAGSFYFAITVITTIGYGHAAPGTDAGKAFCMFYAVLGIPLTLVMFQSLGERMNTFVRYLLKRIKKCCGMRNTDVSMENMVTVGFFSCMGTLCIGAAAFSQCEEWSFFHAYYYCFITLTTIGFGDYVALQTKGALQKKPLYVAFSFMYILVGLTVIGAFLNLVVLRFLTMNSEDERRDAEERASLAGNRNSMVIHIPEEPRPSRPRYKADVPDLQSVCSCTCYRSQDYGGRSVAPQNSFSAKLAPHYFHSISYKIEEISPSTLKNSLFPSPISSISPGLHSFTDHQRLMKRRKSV
Chain of NAD-dependent protein deacylase sirtuin-5, mitochondrial (Q9NXA8 whole entry): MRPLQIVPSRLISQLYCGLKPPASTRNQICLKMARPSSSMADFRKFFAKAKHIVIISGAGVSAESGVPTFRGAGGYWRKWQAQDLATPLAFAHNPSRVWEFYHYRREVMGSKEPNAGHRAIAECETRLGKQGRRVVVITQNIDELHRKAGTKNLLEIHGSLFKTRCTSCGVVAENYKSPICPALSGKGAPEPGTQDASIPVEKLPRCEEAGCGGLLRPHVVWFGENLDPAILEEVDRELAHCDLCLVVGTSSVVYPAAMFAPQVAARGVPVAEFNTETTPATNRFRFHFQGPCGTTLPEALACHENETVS
Chain of Vasopressin V1b receptor (P47901 whole entry): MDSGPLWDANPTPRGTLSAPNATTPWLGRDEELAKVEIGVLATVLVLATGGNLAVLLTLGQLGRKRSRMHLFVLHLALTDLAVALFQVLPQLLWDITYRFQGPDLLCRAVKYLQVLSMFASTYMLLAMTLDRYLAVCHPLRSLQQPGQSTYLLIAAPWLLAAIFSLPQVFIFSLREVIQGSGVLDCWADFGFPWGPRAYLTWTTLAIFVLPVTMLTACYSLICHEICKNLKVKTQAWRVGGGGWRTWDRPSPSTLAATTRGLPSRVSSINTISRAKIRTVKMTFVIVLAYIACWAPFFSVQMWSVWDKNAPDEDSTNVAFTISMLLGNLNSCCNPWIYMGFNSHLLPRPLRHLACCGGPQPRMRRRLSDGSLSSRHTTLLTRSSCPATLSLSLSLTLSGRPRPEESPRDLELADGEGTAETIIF
Chain of Vasopressin V2 receptor (P30518 whole entry): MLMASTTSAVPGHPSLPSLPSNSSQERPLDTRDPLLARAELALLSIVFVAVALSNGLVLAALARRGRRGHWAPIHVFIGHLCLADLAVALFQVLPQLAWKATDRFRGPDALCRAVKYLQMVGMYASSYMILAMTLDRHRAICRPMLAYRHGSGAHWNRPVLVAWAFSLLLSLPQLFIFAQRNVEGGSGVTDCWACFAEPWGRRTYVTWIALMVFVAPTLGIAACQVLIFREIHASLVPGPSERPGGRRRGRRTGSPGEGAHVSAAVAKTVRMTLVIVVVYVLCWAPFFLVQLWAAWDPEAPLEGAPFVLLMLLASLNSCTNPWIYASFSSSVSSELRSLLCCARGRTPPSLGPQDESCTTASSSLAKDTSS
Chain of Potassium voltage-gated channel subfamily KQT member 2 (O88943 whole entry): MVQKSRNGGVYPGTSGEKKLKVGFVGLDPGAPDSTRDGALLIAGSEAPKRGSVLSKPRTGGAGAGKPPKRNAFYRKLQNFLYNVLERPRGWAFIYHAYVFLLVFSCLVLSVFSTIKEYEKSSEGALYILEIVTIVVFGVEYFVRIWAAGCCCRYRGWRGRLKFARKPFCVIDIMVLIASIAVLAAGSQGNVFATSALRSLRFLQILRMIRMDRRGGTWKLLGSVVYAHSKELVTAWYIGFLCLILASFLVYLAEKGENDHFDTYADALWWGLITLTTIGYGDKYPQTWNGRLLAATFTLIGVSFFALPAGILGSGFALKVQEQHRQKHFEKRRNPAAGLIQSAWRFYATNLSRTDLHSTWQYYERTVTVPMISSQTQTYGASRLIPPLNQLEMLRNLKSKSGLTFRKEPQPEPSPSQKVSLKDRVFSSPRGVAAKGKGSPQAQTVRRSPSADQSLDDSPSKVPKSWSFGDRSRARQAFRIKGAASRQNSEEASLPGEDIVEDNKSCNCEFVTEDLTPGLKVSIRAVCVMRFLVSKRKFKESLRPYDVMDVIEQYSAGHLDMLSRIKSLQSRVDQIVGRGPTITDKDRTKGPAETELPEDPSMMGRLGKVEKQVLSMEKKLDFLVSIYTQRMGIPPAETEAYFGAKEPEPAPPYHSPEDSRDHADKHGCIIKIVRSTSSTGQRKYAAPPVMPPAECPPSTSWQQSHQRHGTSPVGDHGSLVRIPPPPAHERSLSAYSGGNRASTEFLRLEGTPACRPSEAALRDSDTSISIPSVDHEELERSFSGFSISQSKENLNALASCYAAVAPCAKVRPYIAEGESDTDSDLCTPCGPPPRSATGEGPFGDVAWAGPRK
Chain of Nucleotide-binding oligomerization domain-containing protein 2 (Q9HC29 whole entry, the tested form may be a part): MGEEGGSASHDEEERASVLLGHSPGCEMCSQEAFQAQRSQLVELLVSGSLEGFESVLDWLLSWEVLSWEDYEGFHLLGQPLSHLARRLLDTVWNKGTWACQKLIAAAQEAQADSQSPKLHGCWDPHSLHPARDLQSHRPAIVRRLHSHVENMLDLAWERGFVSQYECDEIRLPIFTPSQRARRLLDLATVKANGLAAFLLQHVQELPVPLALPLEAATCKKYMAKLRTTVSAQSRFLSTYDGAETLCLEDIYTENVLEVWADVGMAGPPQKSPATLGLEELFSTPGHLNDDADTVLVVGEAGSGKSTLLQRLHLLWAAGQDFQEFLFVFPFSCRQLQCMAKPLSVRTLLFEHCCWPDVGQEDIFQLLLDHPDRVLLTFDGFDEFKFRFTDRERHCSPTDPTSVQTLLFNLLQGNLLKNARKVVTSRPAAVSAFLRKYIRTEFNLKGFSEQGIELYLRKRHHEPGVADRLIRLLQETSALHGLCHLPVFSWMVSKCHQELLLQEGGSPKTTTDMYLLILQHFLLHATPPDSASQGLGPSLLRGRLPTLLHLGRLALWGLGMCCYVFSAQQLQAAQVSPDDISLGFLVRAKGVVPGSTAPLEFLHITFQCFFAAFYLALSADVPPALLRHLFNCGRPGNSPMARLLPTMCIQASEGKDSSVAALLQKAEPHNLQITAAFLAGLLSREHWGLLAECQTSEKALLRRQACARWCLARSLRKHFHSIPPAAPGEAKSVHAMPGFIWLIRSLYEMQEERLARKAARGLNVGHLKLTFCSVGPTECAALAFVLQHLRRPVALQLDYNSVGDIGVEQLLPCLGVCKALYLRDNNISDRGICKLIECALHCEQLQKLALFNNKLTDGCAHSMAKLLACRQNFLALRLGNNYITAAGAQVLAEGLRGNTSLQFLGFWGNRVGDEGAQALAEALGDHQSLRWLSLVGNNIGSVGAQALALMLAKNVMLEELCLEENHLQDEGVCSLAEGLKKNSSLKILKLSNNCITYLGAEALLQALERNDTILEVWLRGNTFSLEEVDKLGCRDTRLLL
Chain of Paired box protein Pax-8 (Q06710 whole entry): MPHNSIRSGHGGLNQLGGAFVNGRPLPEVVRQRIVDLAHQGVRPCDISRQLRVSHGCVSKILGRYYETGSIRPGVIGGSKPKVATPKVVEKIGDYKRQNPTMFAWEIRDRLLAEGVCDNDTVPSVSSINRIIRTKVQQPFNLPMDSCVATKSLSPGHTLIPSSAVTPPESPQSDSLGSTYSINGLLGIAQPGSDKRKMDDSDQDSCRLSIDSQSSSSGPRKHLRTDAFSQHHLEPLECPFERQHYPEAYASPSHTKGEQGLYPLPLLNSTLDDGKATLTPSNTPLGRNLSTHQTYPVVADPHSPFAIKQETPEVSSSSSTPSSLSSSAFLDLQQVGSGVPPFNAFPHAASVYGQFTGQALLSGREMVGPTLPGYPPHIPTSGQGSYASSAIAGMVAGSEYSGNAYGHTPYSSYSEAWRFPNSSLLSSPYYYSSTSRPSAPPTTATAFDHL
Chain of Potassium channel subfamily K member 3 (Homo sapiens, UniProt O14649) (O14649 whole entry, the tested form may be a part): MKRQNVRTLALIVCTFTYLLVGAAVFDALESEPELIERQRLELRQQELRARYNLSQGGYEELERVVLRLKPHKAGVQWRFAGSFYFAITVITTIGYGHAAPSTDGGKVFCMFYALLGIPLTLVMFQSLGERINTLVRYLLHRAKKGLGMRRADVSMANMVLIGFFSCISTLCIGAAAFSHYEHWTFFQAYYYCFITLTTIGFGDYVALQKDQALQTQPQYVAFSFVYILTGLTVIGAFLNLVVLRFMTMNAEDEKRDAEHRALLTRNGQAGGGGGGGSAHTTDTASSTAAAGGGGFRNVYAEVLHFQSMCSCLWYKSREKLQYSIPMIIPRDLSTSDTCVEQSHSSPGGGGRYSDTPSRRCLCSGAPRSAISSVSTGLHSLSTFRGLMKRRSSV
Chain of Caspase-6 (P55212 24-179 limits assumed): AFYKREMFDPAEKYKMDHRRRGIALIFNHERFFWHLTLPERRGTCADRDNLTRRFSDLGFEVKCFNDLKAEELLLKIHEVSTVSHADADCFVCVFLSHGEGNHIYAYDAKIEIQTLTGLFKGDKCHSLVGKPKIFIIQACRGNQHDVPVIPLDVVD
Chain of Caspase-6 (P55212 194-293 limits assumed): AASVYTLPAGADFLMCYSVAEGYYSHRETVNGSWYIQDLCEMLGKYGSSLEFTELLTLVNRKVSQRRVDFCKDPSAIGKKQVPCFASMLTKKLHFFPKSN
Chain of Potassium channel subfamily K member 3 (Rattus norvegicus, UniProt O54912) (O54912 whole entry, the tested form may be a part): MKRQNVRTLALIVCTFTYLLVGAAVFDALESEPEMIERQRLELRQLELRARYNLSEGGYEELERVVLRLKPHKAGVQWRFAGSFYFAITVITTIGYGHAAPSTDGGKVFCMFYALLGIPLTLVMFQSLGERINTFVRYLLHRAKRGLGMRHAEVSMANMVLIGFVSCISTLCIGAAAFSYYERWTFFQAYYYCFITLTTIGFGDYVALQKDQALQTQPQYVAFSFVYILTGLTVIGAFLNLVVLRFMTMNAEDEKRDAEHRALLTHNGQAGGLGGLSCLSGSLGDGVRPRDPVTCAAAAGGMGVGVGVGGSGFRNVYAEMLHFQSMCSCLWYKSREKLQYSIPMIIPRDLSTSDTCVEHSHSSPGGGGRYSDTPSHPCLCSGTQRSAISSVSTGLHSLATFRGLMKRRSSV

Cc1cccc(-c2ccc([C@@H]3[C@@H]4CN(Cc5cccc(F)c5)C[C@H]3N4)cc2)c1
AC50 [1]: 17.7 µM (active) | AC50 [2]: 27.1 µM (active) | AC50 [3]: 35.4 µM (active) | AC50 [4]: 20.4 µM (active)

Cc1ccc(N2CCC(C(=O)N(CC3CC3)c3ccc(Cl)cc3)CC2)nc1
IC50 [5]: 12.4 µM (inactive) | IC50 [6]: 0.0201 µM (active) | IC50 [7]: 12.3 µM (inactive) | IC50 [8]: 20.8 µM (inactive)

COc1ccc(-n2c(/C=C/c3ccc4c(c3)OCO4)nc3ccccc3c2=O)cc1
AC50 [9]: > 30 µM (inactive)

Cc1cc(-c2nc3cc(F)ccc3s2)ccc1N
AC50 [10]: 3.8 µM (active) | IC50 [11]: > 67.6 µM (inactive) | AC50 [12]: 0.55 µM (active) | AC50 [13]: 3.96 µM (active) | AC50 [14]: 0.0824 µM (active) | IC50 [15]: 19.1 µM (active) | AC50 [16]: 21.4 µM (active)

CO[C@@H](CN(C)S(=O)(=O)c1ccc(C)cc1)[C@@H](C)CN([C@H](C)CO)S(=O)(=O)c1cccc(Cl)c1
AC50 [17]: 18.6 µM (active)

CS(=O)(=O)c1cccc(-c2nnc(SCc3ccccc3)o2)c1
AC50 [18]: > 52 µM (inactive)

O=C(CCCn1c(=S)[nH]c2cc3c(cc2c1=O)OCO3)N1CCN(c2ccc(Cl)cc2)CC1
AC50 [19]: > 70 µM (inactive) | EC50 [20]: 3.83 µM (active) | AC50 [21]: 2.75 µM (active) | IC50 [22]: 16.4 µM (active) | IC50 [23]: 12.6 µM (active) | EC50 [24]: 7.73 µM (active) | IC50 [25]: > 20 µM (inactive) | IC50 [26]: 8.75 µM (active) | AC50 [27]: 44.3 µM (active) | IC50 [28]: 6.5 µM (active) | AC50 [29]: 7.01 µM (active) | AC50 [30]: 5.71 µM (active) and 5.84 µM (active) | AC50 [31]: 5.45 µM (active)

O=C(c1cccnc1)N1C[C@@H]2[C@H](c3ccccc31)[C@@H](CO)N2CC1CCCC1
AC50 [32]: > 52 µM (inactive) | AC50 [33]: > 52 µM (inactive)

CCN(CC)Cc1cc(Nc2ccnc3cc(Cl)ccc23)ccc1O
IC50 [34]: 0.19 µM (active)

O=C(Nc1cccc(Cl)c1)[C@H]1CCc2ccccc2N1S(=O)(=O)c1cccs1
EC50 [35]: > 30 µM (inactive)

O=C(OC1CCOC1=O)c1ccc(Cl)c(S(=O)(=O)N2CCOCC2)c1 (stereo not drawn)
AC50 [36]: 13.5 µM (active)

CCOc1ccccc1C(=O)Nc1cccc(NC(=O)c2cccc(C)c2)c1
IC50 [37]: 0.44 µM (active) | IC50 [38]: 0.38 µM (active) | IC50 [39]: 0.01 µM (active) | IC50 [40]: 0.011 µM (active) | IC50 [41]: 1.88 µM (active)

Cc1ccc(S(=O)(=O)Nc2ccc3c(c2)C(=O)N([C@H](C)CO)C[C@H](C)[C@@H](CN(C)Cc2ccc(C(F)(F)F)cc2)OCCCC[C@H](C)O3)cc1
AC50 [42]: 10.3 µM (active) | AC50 [43]: 16.6 µM (active) | AC50 [44]: 15 µM (active) | AC50 [45]: 4.62 µM (active) | AC50 [46]: 18.1 µM (active)

CCOC(=O)COc1cccc2c(=O)n(CC(=O)NCc3ccccc3)ccc12
IC50 [47]: > 80 µM (inactive) | AC50 [48]: > 30 µM (inactive)
